Test results reported in paper PMC7909954 (eLife, 2021).
Like-named read-outs stand apart in the source and are kept apart here.

Legend:
mMOR [1] = target: T1, mMOR (Mus musculus, UniProt P42866)
DOR [2] = target: T2, DOR (Homo sapiens, UniProt P41143); test: cell-based
mDOR [3] = target: T3, mDOR (Mus musculus, UniProt P32300); test: biochemical; details: read-out: Emax mDOR [35S]GTPγS
mKOR [4] = target: T4, mKOR (Mus musculus, UniProt P33534); test: biochemical
MOR [5] = target: T5, MOR (Homo sapiens, UniProt P35372); test: cell-based
T5 sequence (P35372 whole entry): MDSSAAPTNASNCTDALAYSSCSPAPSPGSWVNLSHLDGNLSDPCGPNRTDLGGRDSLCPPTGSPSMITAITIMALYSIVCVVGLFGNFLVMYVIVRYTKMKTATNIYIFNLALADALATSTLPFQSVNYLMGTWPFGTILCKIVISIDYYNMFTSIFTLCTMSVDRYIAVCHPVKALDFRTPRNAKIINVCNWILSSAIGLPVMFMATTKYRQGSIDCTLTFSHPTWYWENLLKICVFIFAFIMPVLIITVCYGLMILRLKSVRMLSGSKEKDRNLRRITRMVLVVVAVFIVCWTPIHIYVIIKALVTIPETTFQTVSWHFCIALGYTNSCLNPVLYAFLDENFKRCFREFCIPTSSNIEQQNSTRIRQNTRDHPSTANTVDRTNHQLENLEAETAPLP

mMOR [6] = target: T1, mMOR; test: cell-based; design: expressed in transfected cells; host or cells: HEK-293T
Y312W-hKOR [7] = target: T6, Y312W-hKOR (Homo sapiens, UniProt P41145, Y312W); test: cell-based; details: read-out: Emax% cAMP inhibition Y312W-hKOR
T6 sequence (P41145 whole entry Y312W): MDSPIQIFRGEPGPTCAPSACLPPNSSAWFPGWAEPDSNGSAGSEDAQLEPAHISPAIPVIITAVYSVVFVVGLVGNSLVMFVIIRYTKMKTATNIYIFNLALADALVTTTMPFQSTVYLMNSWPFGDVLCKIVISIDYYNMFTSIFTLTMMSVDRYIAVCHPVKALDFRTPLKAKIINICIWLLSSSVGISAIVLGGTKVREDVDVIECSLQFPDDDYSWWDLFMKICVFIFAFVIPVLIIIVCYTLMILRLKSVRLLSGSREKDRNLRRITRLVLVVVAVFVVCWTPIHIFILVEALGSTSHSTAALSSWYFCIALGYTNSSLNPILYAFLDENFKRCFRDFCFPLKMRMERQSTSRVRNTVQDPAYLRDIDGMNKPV

Y312W-hKOR [8] = target: T6, Y312W-hKOR
mDOR [9] = target: T3, mDOR; test: cell-based
KOR [10] = target: T7, KOR (Homo sapiens, UniProt P41145)
T7 sequence (P41145 whole entry): as the sequence (P41145 whole entry Y312W) above, with W312Y counted along it

Y312W-hKOR [11] = target: T6, Y312W-hKOR; test: cell-based
KOR [12] = target: T7, KOR; test: cell-based
DOR [13] = target: T2, DOR; test: cell-based; remark: listed apart in the source
MOR [14] = target: T5, MOR
mMOR [15] = target: T1, mMOR; test: biochemical
mMOR [16] = target: T1, mMOR; test: cell-based
MOR [17] = target: T5, MOR; test: cell-based; remark: listed apart in the source
KOR [18] = target: T7, KOR; test: cell-based; remark: listed apart in the source
rKOR [19] = target: T8, rKOR (Rattus norvegicus, UniProt P34975); test: cell-based; details: HEK-293T, read-out: Emax% arrestin recruitment (BRET) rKOR
T8 sequence (P34975 whole entry): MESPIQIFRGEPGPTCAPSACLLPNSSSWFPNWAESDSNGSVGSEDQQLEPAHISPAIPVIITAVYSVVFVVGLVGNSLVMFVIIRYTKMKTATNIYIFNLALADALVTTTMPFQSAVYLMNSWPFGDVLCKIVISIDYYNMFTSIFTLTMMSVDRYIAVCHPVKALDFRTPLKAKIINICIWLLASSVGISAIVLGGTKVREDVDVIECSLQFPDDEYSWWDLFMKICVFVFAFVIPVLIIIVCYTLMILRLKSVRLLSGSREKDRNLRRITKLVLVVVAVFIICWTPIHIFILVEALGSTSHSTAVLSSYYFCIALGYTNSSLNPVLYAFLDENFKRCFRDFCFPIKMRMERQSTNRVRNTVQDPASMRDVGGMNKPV

mKOR [20] = target: T4, mKOR; test: biochemical; remark: listed apart in the source
rKOR [21] = target: T8, rKOR
rKOR [22] = target: T8, rKOR; test: cell-based; details: HEK-293T, read-out: Emax% G protein activation (BRET) rKOR
mMOR [23] = target: T1, mMOR; test: biochemical; remark: listed apart in the source
mDOR [24] = target: T3, mDOR; test: cell-based; remark: listed apart in the source
[25] = transduction coefficient log(T/KA)

T1 sequence (P42866 whole entry): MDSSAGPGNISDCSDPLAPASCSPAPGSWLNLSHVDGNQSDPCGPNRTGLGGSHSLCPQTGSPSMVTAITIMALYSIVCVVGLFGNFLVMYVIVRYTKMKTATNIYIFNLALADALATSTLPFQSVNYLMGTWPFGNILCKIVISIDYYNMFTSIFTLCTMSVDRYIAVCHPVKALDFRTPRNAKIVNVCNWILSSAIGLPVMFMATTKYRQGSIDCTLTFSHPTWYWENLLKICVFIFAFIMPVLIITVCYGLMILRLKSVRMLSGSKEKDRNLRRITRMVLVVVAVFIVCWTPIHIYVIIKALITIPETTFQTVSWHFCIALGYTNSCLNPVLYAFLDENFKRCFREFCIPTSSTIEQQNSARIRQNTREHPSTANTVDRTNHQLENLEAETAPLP
T4 sequence (P33534 whole entry): as the sequence (P34975 whole entry) above, with E11D, A17S, P51S, V308A counted along it
T3 sequence (P32300 whole entry): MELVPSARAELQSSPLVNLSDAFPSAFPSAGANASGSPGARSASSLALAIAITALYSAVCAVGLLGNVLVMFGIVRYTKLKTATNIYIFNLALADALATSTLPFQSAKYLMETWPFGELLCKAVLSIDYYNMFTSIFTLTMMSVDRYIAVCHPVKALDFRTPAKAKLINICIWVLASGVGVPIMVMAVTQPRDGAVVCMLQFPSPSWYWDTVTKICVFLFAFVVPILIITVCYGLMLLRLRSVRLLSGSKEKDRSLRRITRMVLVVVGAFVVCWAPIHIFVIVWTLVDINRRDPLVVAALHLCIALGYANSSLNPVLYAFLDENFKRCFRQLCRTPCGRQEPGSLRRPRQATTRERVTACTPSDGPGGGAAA
T2 sequence (P41143 whole entry): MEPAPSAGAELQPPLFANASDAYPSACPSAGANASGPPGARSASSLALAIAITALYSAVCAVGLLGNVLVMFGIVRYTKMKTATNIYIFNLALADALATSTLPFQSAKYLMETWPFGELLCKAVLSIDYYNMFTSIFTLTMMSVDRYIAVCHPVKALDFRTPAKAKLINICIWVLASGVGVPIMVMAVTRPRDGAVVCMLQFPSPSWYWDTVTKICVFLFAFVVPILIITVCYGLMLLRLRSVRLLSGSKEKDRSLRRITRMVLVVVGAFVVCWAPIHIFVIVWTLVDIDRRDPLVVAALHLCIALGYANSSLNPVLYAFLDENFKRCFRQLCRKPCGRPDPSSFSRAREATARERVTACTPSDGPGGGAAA

`O=C(N[C@@H]1CCC2C3Cc4ccc(O)c5c4[C@@]2(CCN3CC2CC2)C1O5)c1cccc(I)c1` (stereo partly drawn) [MP1202, N-((7R,12bS)−3-(Cyclopropylmethyl)−9-hydroxy-2,3,4,4a,5,6,7,7a-octahydro-1H-4,12-methanobenzofuro[3,2-e]isoquinolin-7-yl)−3-iodobenzamide] was tested, and the “Emax% G protein activation (BRET) mMOR” value (mMOR [1]) was 61±1.5%, the EC50 (DOR [2]; EC50 cAMP inhibition hDOR) was 8.18 nM and the Emax (DOR [2]; HEK-293T, read-out: Emax% cAMP inhibition hDOR) was 99 ± 2.2%. It also gave an Emax (mDOR [3]) of 71 ± 2%, an EC50 (mKOR [4]; EC50 mKOR [35S]GTPγS, ± SEM) of 0.13 ± 0.02 nM and an Emax (mKOR [4]; read-out: Emax mKOR [35S]GTPγS) of 94 ± 5%. It also gave an EC50 (MOR [5]; EC50 cAMP inhibition hMOR) of 0.077 nM, an Emax (MOR [5]; HEK-293T, read-out: Emax% cAMP inhibition hMOR) of 92 ± 1.4% and an EC50 (mMOR [6]) of 3140 nM. For the same molecule, the “Emax% arrestin recruitment (BRET) mMOR” value (mMOR [6]) was 53 ± 1.6%, the Emax (mMOR [6]; HEK-293T, read-out: Emax% arrestin recruitment (BRET) mMOR) was 57% and the Emax (Y312W-hKOR [7]) was 101 ± 1.5%. For the same molecule, the “Log RA cAMP Y312W-hKOR” value (Y312W-hKOR [8]) was 10.63±0.005, the “LogRA Tango Y312W-hKOR” value (Y312W-hKOR [8]) was 8.091±0.051 and the “ΔΔlog RA (cAMP-Tango) Y312W-hKOR” value (Y312W-hKOR [8]) was 1.53±0.073. For the same molecule, the “Bias factor (cAMP-Tango) Y312W-hKOR” value (Y312W-hKOR [8]; vs U50,488h) was 34, the “ΔlogRA Tango Y312W-hKOR” value (Y312W-hKOR [8]; vs U50,488h) was 0.532±0.073 and the “ΔlogRA cAMP Y312W-hKOR” value (Y312W-hKOR [8]; vs U50,488h) was 2.062±0.007. The EC50 (mDOR [9]; EC50 G protein activation (BRET) mDOR) was 7.03 nM, the Emax (mDOR [9]; HEK-293T, read-out: Emax% G protein activation (BRET) mDOR) was 103 ± 4.6% and the EC50 (mDOR [9]; pEC50 G protein activation (BRET) mDOR, ± SEM) was 7.94 nM. For the same molecule, the “ΔΔlog RA (cAMP-Tango) hKOR” value (KOR [10]) was -0.19±0.072, the “Log RA cAMP hKOR” value (KOR [10]; [25]) was 11.88±0.050 and the “LogRA Tango hKOR” value (KOR [10]; [25]) was 10.30±0.004. For the same molecule, the “ΔlogRA Tango hKOR” value (KOR [10]; vs U50,488h) was 1.856±0.006, the “ΔlogRA cAMP hKOR” value (KOR [10]; vs U50,488h) was 1.66±0.072 and the EC50 (Y312W-hKOR [11]) was 3.4 nM. For the same molecule, the Emax (Y312W-hKOR [11]; read-out: Emax% arrestin recruitment (Tango) Y312W-hKOR) was 55 ± 2.6%, the EC50 (KOR [12]; EC50 cAMP inhibition hKOR) was 0.00139 nM and the Emax (KOR [12]; HEK-293T, read-out: Emax% cAMP inhibition hKOR) was 97.9 ± 2.5%. For the same molecule, the EC50 (DOR [13]; EC50 arrestin recruitment hDOR, Tango) was 18.1 nM, the Emax (DOR [13]; HTLA, read-out: Emax% arrestin recruitment hDOR) was 26 ± 3.1% and the “Bias factor (cAMP-Tango) hMOR” value (MOR [14]) was 31. For the same molecule, the “Log RA cAMP hMOR” value (MOR [14]) was 9.99±0.012, the “LogRA Tango hMOR” value (MOR [14]) was 7.24±0.002 and the “ΔlogRA Tango hMOR” value (MOR [14]) was 0.058±0.002. For the same molecule, the “ΔlogRA cAMP hMOR” value (MOR [14]) was 1.55±0.016, the “ΔΔlog RA (cAMP-Tango) hMOR” value (MOR [14]) was 1.49±0.016 and the EC50 (mMOR [15]; EC50 mMOR [35S]GTPγS, ± SEM) was 0.32 ± 0.03 nM. The Emax (mMOR [15]; read-out: Emax mMOR [35S]GTPγS) was 68 ± 1%, the EC50 (mMOR [16]; EC50 G protein activation (BRET) mMOR) was 0.63 nM and the Emax (mMOR [16]; HEK-293T, read-out: Emax% G protein activation (BRET) mMOR) was 70%. It also gave an EC50 (MOR [17]) of 26.8 nM, an Emax (MOR [17]; HTLA, read-out: Emax% arrestin recruitment (Tango) hMOR) of 53 ± 2% and an EC50 (KOR [18]; EC50 arrestin recruitment (Tango) hKOR) of 0.0457 nM. The Emax (KOR [18]; HTLA, read-out: Emax% arrestin recruitment (Tango) hKOR) was 101 ± 1%, the Emax (rKOR [19]) was 77 ± 5% and the Ki (mKOR [20]) was 0.11 ± 0.064 nM. For the same molecule, the “Log RA BRET-G rKOR” value (rKOR [21]) was 9.906±0.088, the “LogRA BRET-Arr rKOR” value (rKOR [21]) was 8.791±0.171 and the “ΔΔlog RA (BRETG-BRETArr) rKOR” value (rKOR [21]) was -0.399±0.27. For the same molecule, the “ΔlogRA BRET-G rKOR” value (rKOR [21]; vs U50,488h) was 1.594±0.117, the “ΔlogRA BRET-arr rKOR” value (rKOR [21]; vs U50,488h) was 1.993±0.239 and the Emax (rKOR [22]) was 104 ± 2%. For the same molecule, the Ki (mMOR [23]) was 0.071 ± 0.031 nM, the EC50 (mDOR [24]; EC50 arrestin recruitment (BRET) mDOR) was 525 nM and the Emax (mDOR [24]; HEK-293T, read-out: Emax% arrestin recruitment (BRET) mDOR) was 26 ± 2.3%.
